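All cell lines were grown in 96-well plates and treated with compound for 48 hours. At the GI50, growth is halved.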 Active and inactive are the calls of the source. Cut-off read from the data, not from the text of the source: active = GI50 up to about 1.1 µM and inactive = higher.
Columns and labels:
Assay in all cases: DTP human tumour cell line panel, 48 h
XF498 = tested on: XF498
KM-20L2 = tested on: KM-20L2
DMS-273 = tested on: DMS-273
M19-MEL = tested on: M19-MEL
SNB-78 = tested on: SNB-78
DLD-1 = tested on: DLD-1
LXFL 529 = tested on: LXFL 529
DMS-114 = tested on: DMS-114
RXF 631 = tested on: RXF 631

Compound | GI50 (XF498) | GI50 (KM-20L2) | GI50 (DMS-273) | GI50 (M19-MEL) | GI50 (SNB-78) | GI50 (DLD-1) | GI50 (LXFL 529) | GI50 (DMS-114) | GI50 (RXF 631)
O=C(/C=C/c1ccccc1)Oc1cccc2cccnc12 | 11.3 µM (inactive) | 2.2 µM (inactive) | 23 µM (inactive) | 13.2 µM (inactive) | 21 µM (inactive) | 4.37 µM (inactive) | 4.06 µM (inactive) |  | 
CCN(CC)C(=S)SC1CCOP(=O)(N(CCCl)CCCl)N1C (stereo unspecified) |  | 38.7 µM (inactive) | 0.214 µM (active) | 0.212 µM (active) | 49.2 µM (inactive) | 0.126 µM (active) | 0.0372 µM (active) | 0.19 µM (active) | 
Cc1cc(NC(=O)NC(=O)c2ccccc2NC(=O)C(C)N)ccc1Oc1ncc(Br)cn1 (stereo unspecified) |  | 0.0946 µM (active) | 0.046 µM (active) | 0.292 µM (active) | 0.146 µM (active) | 0.331 µM (active) | 0.396 µM (active) | 1.13 µM (inactive) | 
CC(Oc1ccc2c(-c3ccc(Cl)cc3)cc(=O)oc2c1)C(=O)O (stereo unspecified) | 2.35 µM (inactive) | > 100 µM (inactive) |  |  | > 100 µM (inactive) | > 100 µM (inactive) | > 100 µM (inactive) |  | > 100 µM (inactive)
COC(=O)C12CC(C3CC31)C1CC12 (stereo unspecified) |  | > 100 µM (inactive) | > 100 µM (inactive) | > 100 µM (inactive) |  | > 100 µM (inactive) | > 100 µM (inactive) | > 100 µM (inactive) | > 100 µM (inactive)
C#C[C@]1(O)CCC2C3CCc4cc(Oc5nc(F)nc(-n6c(C)nc7cc8ccccc8cc76)n5)ccc4C3CCC21C (stereo partly specified) | 61 µM (inactive) | 32.4 µM (inactive) | 20.8 µM (inactive) | 37.1 µM (inactive) | 75.3 µM (inactive) | 53.3 µM (inactive) | 41.1 µM (inactive) | 20.6 µM (inactive) | 
CC(C)(C)N/N=C(\C(=O)Nc1cccc(Cl)c1)C1C(=O)Nc2ccccc2[S+]1[O-] (stereo unspecified) | > 100 µM (inactive) | > 100 µM (inactive) | > 100 µM (inactive) | > 100 µM (inactive) |  | > 100 µM (inactive) | > 100 µM (inactive) | > 100 µM (inactive) | > 100 µM (inactive)
O=c1/c(=C/c2ccccc2[N+](=O)[O-])sc2nnc(-c3cccnc3)n12 | > 100 µM (inactive) | > 100 µM (inactive) | > 100 µM (inactive) | > 100 µM (inactive) | > 100 µM (inactive) | > 100 µM (inactive) | > 100 µM (inactive) | > 100 µM (inactive) | > 100 µM (inactive)
C/C=C(\N=C=S)C(=O)OC1C(COC(C)=O)OC([C@]2(O)CC(=O)C(N)=C(C(=O)O)C2=O)C(O)C1OC1CC(OC)C(O)([C@@H](C)OC(=O)[C@@H](C)CC)C(C)O1 (stereo partly specified) | 2.49 µM (inactive) | 6.92 µM (inactive) | 16.3 µM (inactive) | 2.6 µM (inactive) | 5.21 µM (inactive) | 10.9 µM (inactive) | 2.06 µM (inactive) | 6.68 µM (inactive) | 
CC1=Nn2c(nnc2-c2ccc(Cl)cc2)NC(C)(C)C1 | > 100 µM (inactive) | > 100 µM (inactive) | > 100 µM (inactive) | > 100 µM (inactive) | > 100 µM (inactive) | > 100 µM (inactive) | > 100 µM (inactive) | > 100 µM (inactive) | 
O=c1n(-c2ccccc2)c(=O)n2n1C1C=CC2C2C(C1)C2(Cl)Cl (stereo unspecified) | > 100 µM (inactive) | > 100 µM (inactive) | > 100 µM (inactive) | > 100 µM (inactive) | > 100 µM (inactive) | > 100 µM (inactive) | > 100 µM (inactive) | > 100 µM (inactive) | > 100 µM (inactive)
O=C(O)COc1ccc(C(=O)/C(SS/C(C(=O)c2ccc(OCC(=O)O)c(Cl)c2Cl)=C2\C=C(c3ccc(F)cc3)SS2)=C2/C=C(c3ccc(F)cc3)SS2)c(Cl)c1Cl | 5.22 µM (inactive) | 30 µM (inactive) | 13.6 µM (inactive) | 13.2 µM (inactive) | 6.08 µM (inactive) | 11.2 µM (inactive) | 3.29 µM (inactive) | 3.28 µM (inactive) | 
[O-][n+]1c(-c2ccccc2)oc2ccccc21 | 35.6 µM (inactive) | 21.1 µM (inactive) | 12.6 µM (inactive) | 1.89 µM (inactive) | 41.4 µM (inactive) | 7.82 µM (inactive) | 9.04 µM (inactive) | 3.48 µM (inactive) | 47 µM (inactive)
[O-][S+]1c2ccccc2N=C(c2ccc3ccccc3c2)CC1C1=CC=CCC1 (stereo unspecified) | 17.1 µM (inactive) | 19.5 µM (inactive) | 19.2 µM (inactive) | 17.1 µM (inactive) |  | 12.9 µM (inactive) | 14.8 µM (inactive) | 15.2 µM (inactive) | 17.2 µM (inactive)
CC1=C(C(=O)Nc2ccccc2)C(c2ccccc2)C(C(=O)Nc2ccccc2)=C(C)N1 |  | 25.2 µM (inactive) | 47.4 µM (inactive) | 28.9 µM (inactive) | > 100 µM (inactive) | 52.7 µM (inactive) | 22.1 µM (inactive) | 19.2 µM (inactive) | 

— ChEMBL document CHEMBL1201862, “PubChem BioAssay data set” (2004)
